Measured values reported in patent US20230024302A1, “2,3,5-TRISUBSTITUTED PYRAZOLO[1,5-A]PYRIMIDINE COMPOUNDS” (Arcus Biosciences, Inc., priority 2019, published 2023).
Read-outs that look alike come from different tables or passages of the source.

Legend:
PI3Kγ = target: T1, PI3Kγ (Homo sapiens, UniProt P48736); assay: PI3Kγ cellular assay in THP-1 cells (AKT pS473 AlphaLISA); format: cell-based
T1 construct: host or cells: THP-1
Summary of the method: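 Serum-starved THP-1 cells (1.8×10^5/well, serum-free DMEM) treated with compounds from 4 nM to 30 μM in 2% DMSO, then stimulated and lysed.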

PI3Kγ (p120γ) = target: T2, PI3Kγ (p120γ) (Homo sapiens, UniProt P48736); assay: Inhibition of PI3K kinase activity (ADP Glo), PI3Kγ; conditions: read-out: biochemical potency (PI3Kγ IC50)
T2 construct: purchased Promega V1761
T2 sequence (P48736 whole entry): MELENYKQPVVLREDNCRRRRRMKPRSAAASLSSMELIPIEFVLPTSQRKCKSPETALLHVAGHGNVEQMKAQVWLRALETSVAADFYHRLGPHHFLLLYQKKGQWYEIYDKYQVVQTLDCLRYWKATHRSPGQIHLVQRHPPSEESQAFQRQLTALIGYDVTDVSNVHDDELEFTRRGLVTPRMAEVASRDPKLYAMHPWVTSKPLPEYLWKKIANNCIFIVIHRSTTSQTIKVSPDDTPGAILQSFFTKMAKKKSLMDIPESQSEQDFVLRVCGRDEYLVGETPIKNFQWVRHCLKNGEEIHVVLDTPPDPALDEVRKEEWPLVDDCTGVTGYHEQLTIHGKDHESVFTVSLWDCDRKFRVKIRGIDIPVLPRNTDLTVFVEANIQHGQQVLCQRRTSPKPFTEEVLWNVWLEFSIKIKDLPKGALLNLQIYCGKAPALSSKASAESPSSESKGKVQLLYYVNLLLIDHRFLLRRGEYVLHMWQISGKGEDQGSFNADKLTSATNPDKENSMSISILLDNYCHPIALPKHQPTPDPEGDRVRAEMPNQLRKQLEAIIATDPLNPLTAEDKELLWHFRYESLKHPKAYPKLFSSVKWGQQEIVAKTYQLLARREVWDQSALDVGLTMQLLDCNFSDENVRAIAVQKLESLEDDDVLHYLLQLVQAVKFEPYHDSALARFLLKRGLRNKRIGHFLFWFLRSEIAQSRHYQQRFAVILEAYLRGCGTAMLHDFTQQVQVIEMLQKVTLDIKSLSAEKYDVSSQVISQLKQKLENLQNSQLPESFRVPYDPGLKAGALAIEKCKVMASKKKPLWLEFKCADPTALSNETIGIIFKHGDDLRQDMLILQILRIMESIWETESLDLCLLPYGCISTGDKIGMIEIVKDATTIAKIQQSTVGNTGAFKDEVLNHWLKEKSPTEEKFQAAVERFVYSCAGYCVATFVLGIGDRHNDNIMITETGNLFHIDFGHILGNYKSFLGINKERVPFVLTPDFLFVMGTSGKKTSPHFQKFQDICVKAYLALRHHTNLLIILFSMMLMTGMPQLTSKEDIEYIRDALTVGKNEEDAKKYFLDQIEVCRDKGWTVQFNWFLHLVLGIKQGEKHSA
Summary of the method: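 Recombinant p120γ (8 nM, 2× stock) was preincubated with compound for 1 h at rt in HEPES pH 7.4, NaCl, MgCl2 and 0.05% BSA. Reaction was started with PIP2 (0.1 mg/ml, 2×) and ATP (50 μM, 2×) and ran 60 min at rt. ADP formed was read by ADP-Glo luminescence, and IC50 came from a 4-parameter fit.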

[1] = AKT pS473, read-out: cellular potency (PI3Kγ IC50)
[2] = Table 6, rhMCP-1 stimulated AKT pS473, read-out: cellular potency (PI3Kγ IC50)

T1 sequence (P48736 whole entry): as above

C[C@@H](C1CC1)N1Cc2cc(-c3ccn4nc(N)c(C(=O)Nc5ccc(Cl)cc5)c4n3)cc(NS(C)(=O)=O)c2C1=O [Example 392]
IC50 (PI3Kγ; [1]): > 1000 nM
IC50 (PI3Kγ (p120γ)): < 100 nM

C[C@@H](C1CC1)N1Cc2cc(-c3ccn4nc(N)c(C(=O)Nc5ccc(C#N)cc5)c4n3)cc(NS(C)(=O)=O)c2C1=O [Example 393]
IC50 (PI3Kγ; [1]): 100 to 1000 nM
IC50 (PI3Kγ (p120γ)): < 100 nM

C[C@@H](C1CC1)N1Cc2cc(-c3ccn4nc(N)c(C(=O)NC5CC5(C)C)c4n3)cc(NS(C)(=O)=O)c2C1=O (stereo partly drawn) [Example 394]
IC50 (PI3Kγ; [1]): 100 to 1000 nM
IC50 (PI3Kγ (p120γ)): < 100 nM

COC(=O)c1ccc(NC(=O)c2c(N)nn3ccc(-c4cc5c(c(NS(C)(=O)=O)c4)C(=O)N([C@@H](C)C4CC4)C5)nc23)cn1 [Example 395]
IC50 (PI3Kγ; [1]): 100 to 1000 nM
IC50 (PI3Kγ (p120γ)): < 100 nM

C[C@@H](C1CC1)N1Cc2cc(-c3ccn4nc(N)c(C(=O)Nc5ccccn5)c4n3)cc(NS(C)(=O)=O)c2C1=O [Example 396]
IC50 (PI3Kγ; [1]): 100 to 1000 nM
IC50 (PI3Kγ (p120γ)): < 100 nM

C[C@@H](C1CC1)N1Cc2cc(-c3ccn4nc(N)c(C(=O)Nc5ccccc5F)c4n3)cc(NS(C)(=O)=O)c2C1=O [Example 397]
IC50 (PI3Kγ; [1]): 100 to 1000 nM
IC50 (PI3Kγ (p120γ)): < 100 nM

COc1ccccc1NC(=O)c1c(N)nn2ccc(-c3cc4c(c(NS(C)(=O)=O)c3)C(=O)N([C@@H](C)C3CC3)C4)nc12 [Example 398]
IC50 (PI3Kγ; [1]): > 1000 nM
IC50 (PI3Kγ (p120γ)): < 100 nM

CC(C)[C@H](CO)NC(=O)c1c(N)nn2ccc(-c3cc4c(c(NS(C)(=O)=O)c3)C(=O)N([C@@H](C)C(F)(F)F)C4)nc12 [Example 399]
IC50 (PI3Kγ; [1]): 100 to 1000 nM
IC50 (PI3Kγ (p120γ)): < 100 nM

CC(C)[C@H](CO)NC(=O)c1c(N)nn2ccc(-c3cc4c(c(NS(C)(=O)=O)c3)C(=O)N([C@@H](C3CC3)C(F)(F)F)C4)nc12 [Example 400]
IC50 (PI3Kγ; [1]): 100 to 1000 nM
IC50 (PI3Kγ (p120γ)): < 100 nM

C[C@H](N1Cc2cc(-c3ccn4nc(N)c(C(=O)Nc5cccnc5)c4n3)cc(NS(C)(=O)=O)c2C1=O)C(F)(F)F [Example 401]
IC50 (PI3Kγ; [1]): 100 to 1000 nM
IC50 (PI3Kγ (p120γ)): < 100 nM

CC(C)[C@H](N1Cc2cc(-c3ccn4nc(N)c(C(=O)NC5CC5)c4n3)cc(NS(C)(=O)=O)c2C1=O)C(F)(F)F [Example 402]
IC50 (PI3Kγ; [1]): 100 to 1000 nM
IC50 (PI3Kγ (p120γ)): < 100 nM

C[C@H](N1Cc2cc(-c3ccn4nc(N)c(C(=O)Nc5ccccc5)c4n3)cc(NS(C)(=O)=O)c2C1=O)C(F)(F)F [Example 403]
IC50 (PI3Kγ; [1]): 100 to 1000 nM
IC50 (PI3Kγ (p120γ)): < 100 nM

C[C@H](CO)NC(=O)c1c(N)nn2ccc(-c3cc4c(c(N(C)S(C)(=O)=O)c3)C(=O)N([C@@H](C)C3CC3)C4)nc12 [Example 408]
IC50 (PI3Kγ; [2]): 100 to 1000 nM
IC50 (PI3Kγ (p120γ); Table 6, p120γ): < 100 nM

C[C@@H](C1CC1)N1Cc2cc(-c3ccn4nc(N)c(C(=O)NC5CC5)c4n3)cc(NS(=O)(=O)N3CCOCC3)c2C1=O [Example 409]
IC50 (PI3Kγ; [2]): 100 to 1000 nM
IC50 (PI3Kγ (p120γ); Table 6, p120γ): < 100 nM

C[C@@H](C1CC1)N1Cc2cc(-c3ccn4nc(N)c(C(=O)NC5CC5)c4n3)cc(NS(=O)(=O)N(C)C)c2C1=O [Example 410]
IC50 (PI3Kγ; [2]): < 100 nM
IC50 (PI3Kγ (p120γ); Table 6, p120γ): < 100 nM

C[C@@H](C1CC1)N1Cc2cc(-c3ccn4nc(N)c(C(=O)N[C@H]5CC[C@H](C(=O)O)CC5)c4n3)cc(OC(F)(F)F)c2C1=O [Example 411]
IC50 (PI3Kγ; [2]): 100 to 1000 nM
IC50 (PI3Kγ (p120γ); Table 6, p120γ): < 100 nM

C[C@@H](C1CC1)N1Cc2cc(-c3ccn4nc(N)c(C(=O)N[C@@H]5CCC(=O)NC5)c4n3)cc(OC(F)(F)F)c2C1=O [Example 412]
IC50 (PI3Kγ; [2]): 100 to 1000 nM
IC50 (PI3Kγ (p120γ); Table 6, p120γ): < 100 nM

C[C@@H](C1CC1)N1Cc2cc(-c3ccn4nc(N)c(C(=O)N[C@H]5CCC(=O)NC5)c4n3)cc(OC(F)(F)F)c2C1=O [Example 413]
IC50 (PI3Kγ; [2]): 100 to 1000 nM
IC50 (PI3Kγ (p120γ); Table 6, p120γ): < 100 nM

C[C@@H](C1CC1)N1Cc2cc(-c3ccn4nc(N)c(C(=O)NCc5cccnc5)c4n3)cc(OC(F)(F)F)c2C1=O [Example 414]
IC50 (PI3Kγ; [2]): 100 to 1000 nM
IC50 (PI3Kγ (p120γ); Table 6, p120γ): < 100 nM

C[C@H](N1Cc2cc(-c3ccn4nc(N)c(C(=O)NC5CC5)c4n3)cc(OC(F)(F)F)c2C1=O)C(F)(F)F [Example 415]
IC50 (PI3Kγ; [2]): 100 to 1000 nM
IC50 (PI3Kγ (p120γ); Table 6, p120γ): < 100 nM

Nc1nn2ccc(-c3cc4c(c(OC(F)(F)F)c3)C(=O)N([C@@H](CO)C3CC3)C4)nc2c1C(=O)NC1CC1 [Example 416]
IC50 (PI3Kγ; [2]): 100 to 1000 nM
IC50 (PI3Kγ (p120γ); Table 6, p120γ): < 100 nM

C[C@@H](C1CC1)N1Cc2cc(-c3ccn4nc(N)c(C(=O)N[C@H]5CNC[C@H]5O)c4n3)cc(OC(F)(F)F)c2C1=O [Example 417]
IC50 (PI3Kγ; [2]): > 1000 nM
IC50 (PI3Kγ (p120γ); Table 6, p120γ): < 100 nM

C[C@@H](C1CC1)N1Cc2cc(-c3ccn4nc(N)c(C(=O)N[C@@H]5CNC[C@H]5O)c4n3)cc(OC(F)(F)F)c2C1=O [Example 418]
IC50 (PI3Kγ; [2]): > 1000 nM
IC50 (PI3Kγ (p120γ); Table 6, p120γ): < 100 nM

C[C@@H](C1CC1)N1Cc2cc(-c3ccn4nc(N)c(C(=O)Nc5ccc(C(C)(C)O)cc5)c4n3)cc(OC(F)(F)F)c2C1=O [Example 419]
IC50 (PI3Kγ; [2]): 100 to 1000 nM
IC50 (PI3Kγ (p120γ); Table 6, p120γ): < 100 nM
